Data published in patent publication US20200069644A1, “NOVEL USE OF A FORMYL PEPTIDE RECEPTOR 2/ LIPOXIN A4 RECEPTOR (FPR2/ALX) AGONIST FOR TREATMENT OF HEART FAILURE” (BRISTOL- MYERS SQUIBB COMPANY, priority 2017, published 2020).

Columns and labels:
Human FPR2 = target: T1, Human FPR2 (Homo sapiens, UniProt P25090); assay: FPR2 cAMP assay (cAMP inhibition); type: cell-based
T1 construct: expressed in transfected cells; host or cells: CHO-A12
T1 sequence (P25090 1-351): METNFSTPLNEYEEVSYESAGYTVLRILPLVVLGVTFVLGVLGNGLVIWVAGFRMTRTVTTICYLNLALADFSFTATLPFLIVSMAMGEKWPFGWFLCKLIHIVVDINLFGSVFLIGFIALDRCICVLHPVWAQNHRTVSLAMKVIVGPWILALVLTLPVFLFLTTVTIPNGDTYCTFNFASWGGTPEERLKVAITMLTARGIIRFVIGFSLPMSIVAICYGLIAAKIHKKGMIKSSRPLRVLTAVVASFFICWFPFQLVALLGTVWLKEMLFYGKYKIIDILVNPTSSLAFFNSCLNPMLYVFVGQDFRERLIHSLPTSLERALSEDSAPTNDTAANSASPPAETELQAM
Procedure: A mixture of forskolin (5 μM final for FPR2 or 10 μM final for FPR1) and IBMX (200 μM final) were added to 384-well Proxiplates (Perkin-Elmer) pre-dotted with test compounds in DMSO (1% final) at final concentrations in the range of 0.1 nM to 10 μM. CHO overexpressing human FPR1 or human FPR2 receptors were cultured in F-12 (Ham's) medium supplemented with 10% qualified FBS, 250 μg/ml zeocin and 300 μg/ml hygromycin (Life Technologies). Reactions were initiated by adding 2,000 human FPR2 cells per well or 4,000 human FPR1 cells per well in Dulbecco's PBS (with calcium and magnesium) (Life Technologies) supplemented with 0.1% BSA (Perkin-Elmer). The reaction mixtures were incubated for 30 min at room temperature. The level of intracellular cAMP was determined using the HTRF HiRange cAMP assay reagent kit (Cisbio) according to manufacturer's instruction. Solutions of cryptate conjugated anti-cAMP and d2 flurorophore-labelled cAMP were made in a supplied lysis buffer separately. […] After a 1 h room temperature incubation, time-resolved fluorescence intensity was measured using the Envision (Perkin-Elmer) at 400 nm excitation and dual emission at 590 nm and 665 nm. […] The potency and activity of Compound 1 to inhibit cAMP production was then determined by fitting to a 4-parametric logistic equation from a plot of cAMP level versus compound concentrations. […]

[1] = tested on: Mouse peritoneal macrophages; assay: Enhancement of phagocytosis of FITC zymosan; type: cell-based; conditions: Peritoneal macrophage; mouse peritoneal macrophages elicited with 1% Biogel; read-out: EC50, enhancement of phagocytosis of fluorescently labeled zymosan
Procedure: Enhancement of phagocytosis Macrophages were elicited to the peritoneum of five C57BL6 mice by peritoneal injection of 1 mL of 1% Biogel in PBS (−/−) 4 days prior to harvest. Peritoneal exudates are harvested, combined and then filtered to remove Biogel beads. First, through a 70 um cell strainer followed by successively filtering through two 40 um cell strainers. The exudate is diluted with 1×PBS (−/−) to 50 mL and centrifuged at 300×g for 10 minutes at 4° C. The cell pellet is gently resuspended in 20-30 mL 1×PBS(+/+) and cells are counted using the Nexelcom Cellometer counter. Cell concentration is adjusted to 1,250,000 cells/mL in 1×PBS (+/+). 100 μL (125 k) cells are placed into each well of a 96-well Costar 3904 plate. The plates are centrifuged at 150×g for 30 seconds to promote adherence. […] Fluorescence signal from non-ingested Zymosan particles is quenched with 150 uL ice-cold 1:15 diluted Trypan Blue solution for 2 minutes and then aspirated to remove. Lastly, the plate is read on a SpectraMAX Gemini EM fluorescence plate reader in 150 ul of 1:50 diluted Trypan Blue. Plate Reader Settings=Bottom Read: Excitation 493 nm: Emission 525 nm: Cutoff 515 nm: Automix Off: Calibrate On: PMT=Auto: Column Priority: Reads/Well=20. […]

[2] = tested on: myocardial infarction in mice; assay: Mouse model of permanent coronary artery occlusion, 28 days; type: in vivo
Procedure: Permanent coronary artery occlusion was carried out in mice using a ligature placed around the left anterior descending artery to induce myocardial infarction. Treatment with orally-administered Compound 1 (0.3 and 3 mg/kg; QD) or dosing solution without compound (QD, referred to as vehicle) was initiated 24 hours following myocardial infarction. Mice subjected to thoracotomy but not infarcted were included as surgical “sham” controls. Mice were evaluated 28 days following myocardial infarction to assess structure/function relationships. Hearts were removed from mice for histological processing to measure left ventricular dimensions, infarct areas and infarct collagen composition.
The effect of Compound 1 on left ventricle and infarct scar remodeling was evaluated in a mouse model of permanent coronary artery occlusion. MI was created by permanently ligating the left anterior descending artery with a surgical suture. Treatments (QD, PO) were initiated 24 hours after MI and were continued for 28 days. Treatments consisted of suspension vehicle and Compound 1 at 0.3 mg/kg and 3 mg/kg. A cohort of mice that were subjected to the procedure but were not infarcted were included as a “sham operated” surgical control group. At the end of 28 days of treatment, the hearts were removed for histological evaluation of left ventricle structure and scar structure.
This is a model of ischemic heart disease. Infarct size was measured within the left ventricle (LV) and reported as a percentage of the total left ventricle cross sectional area.

## COc1cc(F)c([C@@H]2CNC(=O)[C@H]2NC(=O)Nc2ccccc2)c(F)c1 [Compound 1, 1-((3S,4R)-4-(2,6-difluoro-4-methoxyphenyl)-2-oxopyrrolidin-3-yl)-3-phenylurea]
Human FPR2; CHO cell lines, cAMP
  selectivity for human FPR2 vs. FPR1: 446 fold
Human FPR2; Human FPR2/CHO-A12
  EC50: 2.8 nM
[1]
  EC50: 2 nM
[2]; 0.3 mg/kg PO QD, 28 days
  infarct wall thickness, % of mean thickness of sham: 61%
  reduction of LV chamber area vs. vehicle: 26%
[2]; 3 mg/kg PO QD, 28 days
  infarct wall thickness, % of mean thickness of sham: 67%
[2]; 3 mg/kg PO QD, 28 days (trend)
  reduction of LV chamber area vs. vehicle: 24%
[2]; 3 mg/kg PO QD, 28 days, started 24 h after MI, P<0.01
  reduction in LV anterior wall infarct size vs. vehicle: 55%
[2]; higher dose (3 mg/kg) PO QD, 28 days, P<0.05
  wall thickness difference vs. vehicle: 59%
